# Reference: patent US4968708A, “Imidazo[2,1-B]benzothiazole compounds and antiulcer compositions containing the same” (priority 1988, dated 1990)
# How the values were obtained:
# gastric juice secretion = assay: Gastric juice secretion inhibition activity (pyloric ligature); type: in vivo, Wistar strain male rats; conditions: rats, 100 mg/kg p.o.; for inhibition in vivo at 100 mg/kg: Rattus norvegicus, po, read-out: Volume Inhibition Rate
# Description: A suspension of each test compound in a 5% gum arabic aqueous solution was orally given to Wistar strain male rats (at the age of 7 to 8 weeks, weighing 180 to 250 g; 7-9 rats in the group administered with the test compound; 14-17 rats in the control group) fasted for 24 hours at a dose of 100 mg of the test compound/5 ml/kg. Thirty minutes after administration, pyloric ligature was made under ethereal anesthesia. Four hours thereafter, the stomach was excised under ethereal anesthesia to collect gastric juice. The collected gastric juice was centrifuged (2500 rpm) at 4° C. for 10 minutes. After the supernatant was collected, the amount of the gastric juice and its pH were measured using a pH meter. Furthermore, the amount of free hydrochloric acid and the total acidity were measured with Topfer reagent and phenolphthalein reagent, respectively. Using a part of the gastric juice, pepsin output in the gastric juice was measured using casein as a substrate in a manner similar to the method of Anson et al.
# (§1) In the control group, a 5% gum arabic aqueous solution was orally administered at a dose of 5 ml/kg.
# aspirin-induced ulcer = assay: Antiulcer activity against aspirin-induced ulcer model; type: in vivo, Wistar strain male rats; conditions: rats, 100 mg/kg p.o. 30 min before aspirin 200 mg/kg p.o.; for Aspirin Induced Ulcer Ulcer Index: stomach excised 7 h after aspirin; for inhibition in vivo at 100 mg/kg: Rattus norvegicus, po, 7 h, read-out: Aspirin Induced Ulcer Inhibition Rate
# Description: Thirty minutes after administration, aspirin was further orally administered at a dose of 200 mg/kg. Seven hours after administration of aspirin, the stomach was excised under ethereal anesthesia and spotted and linear erosion and a long diameter of any ulcer were microscopically measured to determine an ulcer index and an inhibition rate.
# as §1
# [1] = system: water-immersion stress ulcer; assay: Antiulcer activity against water-immersion stress ulcer; type: in vivo, Wistar strain male rats; conditions: rats; for Water-Immersion Stress Ulcer Ulcer Index: 100 mg/kg p.o. 30 min before 6 h water immersion at 22°±1° C.; for inhibition in vivo at 100 mg/kg: Rattus norvegicus, po, 6 h, read-out: Water-Immersion Stress Ulcer Inhibition Rate
# Description: A suspension of each test compound in a 5% gum arabic aqueous solution was orally given to Wistar strain male rats (at the age of 7 to 8 weeks, weighing 180 to 250 g; 7-9 rats in the group administered with the test compound; 10-16 rats in the control group) fasted for 24 hours at a dose of 100 mg of the test compound/5 ml/kg. Thirty minutes after administration, the animal was immersed in a water bath at 22°±1° C. up to the xiphisternum using a stress cage made by Tokyo University, Faculty of Pharmacology, to apply a stress load for 6 hours. After applying the stress load, the rats had the cervical vertebra dislocated to death. Then, the stomach was excised and, spotted and linear erosion and a long diameter of any ulcer were microscopically measured to determine an ulcer index and an inhibition rate.
# as §1
# ddy strain male mice = assay: Acute toxicity; type: in vivo; conditions: 7 days observation
# Description: A suspension of each test compound in a 5% gum arabic aqueous solution was orally given to ddy strain male mice (at the age of 4 to 5 weeks, weighing 25 to 35 g; 2 to 9 mice in one group). For 7 days after the administration, the mice were observed as to if they were dead or alive. Based on the number of deaths, the LD50 value was determined by the Probit method.
# [2] = pyloric ligature 30 min later, gastric juice collected after 4 h
# [3] = pyloric ligature, 4 h, first part of Table 5
# [4] = 100 mg/kg p.o. 30 min before 6 h water immersion, vs control group
# [5] = pyloric ligature, 4 h, second part of Table 5
# [6] = 4 h, pyloric ligature, 4 h, vs control group
Compound,Volume (gastric juice) (gastric juice secretion; [2]),"Acidity (gastric juice secretion; pyloric ligature, 4 h)","Free HCl (gastric juice secretion; pyloric ligature, 4 h)","Pepsin Activity (gastric juice secretion; pyloric ligature, 4 h)","Pepsin Output (gastric juice secretion; pyloric ligature, 4 h)",pH (gastric juice) (gastric juice secretion; [3]),Aspirin Induced Ulcer Ulcer Index (aspirin-induced ulcer),Water-Immersion Stress Ulcer Ulcer Index [1],Acid Output (gastric juice secretion; [5]),Free HCl (gastric juice secretion; [5]),Pepsin Output (gastric juice secretion; [5]),Volume (gastric juice) (gastric juice secretion; [5]),pH (gastric juice) (gastric juice secretion; [5]),Mortality (No. death/No. treated) (ddy strain male mice; 500 mg/kg p.o),Mortality (No. death/No. treated) (ddy strain male mice; 1000 mg/kg p.o),inhibition in vivo at 100 mg/kg (aspirin-induced ulcer; vs control group),"inhibition in vivo at 100 mg/kg [1, 4]",inhibition in vivo at 100 mg/kg (gastric juice secretion; [6]),further results
"2-Methyl-3-thenoyloxymethylimidazo[2,1-b]benzothiazole [Example 19]",4.9 ± 0.5 mL,78.9 ± 2.7 mEq/l,48.6 ± 3.4 mEq/l,99.6 ± 2.2 units/ml,122.8 ± 14.4 units/hr,1.56 ± 0.10,63.7 ± 8.1 mm^2,11.3 ± 2.6 mm^2,–,–,–,–,–,–,–,–,–,–,"Volume Inhibition Rate (gastric juice secretion; pyloric ligature, 4 h, vs control group): 18.3%; Aspirin Induced Ulcer Inhibition Rate (aspirin-induced ulcer; vs control group): 4.6%; Water-Immersion Stress Ulcer Inhibition Rate [1, 4]: 51.5%"
"Cc1nc2sc3ccccc3n2c1C(C)O (stereo not drawn) [Example 4, 3-(1-Hydroxyethyl)-2-methylimidazo[2,1-b]benzothiazole]",–,–,–,–,–,–,8.0 ± 2.9 mm^2,7.3 ± 2.5 mm^2,30.8 ± 5.1 mcEq/100 g,8.0 ± 2.9 mcEq/100 g,9.9 ± 1.3 mg tyrosine/100 g,0.69 ± 0.09 ml/100 g,2.36 ± 0.21,0/5,0/5,88.7%,69.2%,–,–
"CCCC(O)c1c(C)nc2sc3ccccc3n12 (stereo not drawn) [Example 5, 3(α-Hydroxy)butyl-2-methylimidazo[2,1-b]benzothiazole]",6.7 ± 0.7 mL,45.0 ± 5.6 mEq/l,10.4 ± 2.1 mEq/l,86.2 ± 1.9 units/ml,139.6 ± 16.7 units/hr,2.17 ± 0.12,43.8 ± 10.3 mm^2,20.4 ± 4.2 mm^2,–,–,–,–,–,–,–,23.7%,5.1%,-13.6%,–
"Cc1nc2sc3ccccc3n2c1C(C)(C)O [Example 6, 3(α-Hydroxy-1-methyl)ethyl-2-methylimidazo[2,1-b]benzothiazole]",–,–,–,–,–,–,55.1 ± 8.7 mm^2,11.7 ± 4.5 mm^2,169.9 ± 38.0 mcEq/100 g,138.6 ± 37.3 mcEq/100 g,23.4 mg tyrosine/100 g,1.90 ± 0.33 ml/100 g,1.24 ± 0.07,0/5,0/5,22.3%,50.6%,–,–
"Cc1nc2sc3ccccc3n2c1C(O)c1ccccc1 (stereo not drawn) [Example 7, 3(αHydroxy)benzyl-2-methylimidazo[2,1-b]benzothiazole]",5.4 ± 0.6 mL,69.1 ± 7.0 mEq/l,39.7 ± 5.0 mEq/l,99.5 ± 4.1 units/ml,135.0 ± 18.1 units/hr,1.65 ± 0.13,39.6 ± 3.7 mm^2,17.9 ± 4.5 mm^2,–,–,–,–,–,–,–,31%,16.7%,8.5%,–
"COc1ccc2c(c1)sc1nc(C)c(CO)n12 [Example 9, 7-Methoxy-2-methylimidazo[2,1-b]benzothiazole-3-methanol]",5.3 ± 0.9 mL,76.2 ± 4.3 mEq/l,42.6 ± 5.2 mEq/l,102.2 ± 3.9 units/ml,135.5 ± 22.7 units/hr,1.55 ± 0.08,64.8 ± 7.5 mm^2,6.4 ± 1.2 mm^2,–,–,–,–,–,–,–,15%,51.5%,15.9%,–
